How the values were obtained:
[1] = test system: HCV replicon; test: Anti-HCV replicon assay, EC50 (luciferase readout); type: cell-based; settings: Hepatitis C virus, 72 h; Huh-7 HCV replicon cells, 3 days incubation, luciferase luminescence
Protocol: (§1) The anti HCV activity of the quinazoline derivatives of this invention was tested in a human hepatoma Huh-7 cell line harbouring a HCV replicon. The assay comprised the following steps:
(§2) Step 1: compound preparation and serial dilution • 1. for water soluble quinazoline derivatives, a volume of 500 μL of solution in cell media (DMEM, 10% FBS, P/S, L-Glutamine) was prepared with a concentration being twice the concentration of the starting final serial dilution concentration. A volume of 150 μL of the solution was added to the pre-specified wells in column 1 of a 96-well cell culture plate (PerkinElmer, white plate, cat. #6005181, for EC50 assay; black plate, cat. #6005182 for CC50 assay). The rest of the plate, columns 2-12, was filled with 100 μL of cell media. The plate was then placed on a Precision 2000 Workstation to start the serial dilution. Compounds were diluted three times each step from column 1 to column 10. Column 11 was used as a blank control (no compound added). • 2. for quinazoline derivatives requiring DMSO to dissolve, serial dilution is performed in 50% DMSO in a 384-well plate. A solution containing a compound at 100-fold concentration of the starting final serial dilution concentration was prepared in 50% DMSO and added to the pre-specified wells in column 1 of a polypropylene 384-well plate. The plate was then placed on a Precision 2000 Workstation to start the serial dilution. After the serial dilution, a volume of 2 μL of the solution was transferred from the 384-well plate to a 96-well cell culture plate containing 100 μL of cell media on a Biomek FX Workstation. The DMSO concentration in the final assay condition was 0.5% after cells are added to the plate and the total volume in each well is brought to 200 μL.
(§3) Step 2: to each well of the serial dilution plate prepared above, 100 μL of cell media containing 6000 suspended Huh-7 HCV replicon cells was added with a Multidrop workstation. The plates were incubated for 3 days at 37° C. with 5% CO2.
(§4) Step 3: detection: • a) for the EC50 assay, the media in a 96-well cell culture plate was aspirated with a Biotek EL405 plate-washer. A volume of 200 μL of a solution containing a 1:1 mixture of cell-lysis buffer (Promega, Luciferase Cell Culture Lysis 5× Reagent, cat. #E1531) and luciferase substrate solution (Promega, Luciferase Assay, cat.# E4550) was added to each well of the plate with Multidrop. The plate was incubated for 30 minutes at room temperature before the luminescence signal was measured with a TopCount plate-reader. • b) for the CC50 assay, a volume of 100 μL of pre-mixed CellTiter-Glo (Promega, cat.# G7572) solution is added directly to the cell culture in each well of the plate and the luminescence signal is measured with a TopCount plate-reader after 10 minutes of incubation at room temperature.
(§5) Results in the table below are expressed by the following data: • the 50% cytostatic concentration (CC50), i.e. the concentration that results in 50% inhibition of cell growth, and • the 50% effective concentration (EC50), i.e. the concentration that […].

[2] = CC50 assay in the anti-HCV replicon assay (CellTiter-Glo); type: cell-based, human; settings: human, Huh-7 hepatoma cells harbouring an HCV replicon; Huh-7 HCV replicon cells, 3 days incubation, CellTiter-Glo luminescence
Protocol: as §1, §2, §3, §4, §5

| Structure (SMILES) | EC50 [1] [µM] | CC50 at 3 days [2] [µM] |
| --- | --- | --- |
| COCCOc1nc(N)nc2ccc(-c3ccc(F)c(F)c3)cc12 [Example 62, 6-(3,4-Difluoro-phenyl)-4-(2-methoxy-ethoxy)-quinazolin-2-ylamine] | 1 to 10 | 10 to 20 |
| COCCOc1nc(N)nc2ccc(-c3cccc(C#N)c3)cc12 [Example 63, 3-(2-Amino-4-(2-methoxy-ethoxy)-quinazolin-6-yl)-benzonitrile] | 1 to 10 | > 20 |
| COCCOc1nc(N)nc2ccc(-c3cn[nH]c3)cc12 [Example 64, 4-(2-Methoxy-ethoxy)-6-(2H-pyrazol-4-yl)-quinazolin-2-ylamine] | 1 to 10 | > 20 |
| COCCOc1nc(N)nc2ccc(-c3ccc(N)cc3)cc12 [Example 65, 6-(4-Amino-phenyl)-4-(2-methoxy-ethoxy)-quinazolin-2-ylamine] | 1 to 10 | > 20 |
| COCCOc1nc(N)nc2ccc(-c3ccc(F)c(F)c3F)cc12 [Example 66, 4-(2-Methoxy-ethoxy)-6-(2,3,4-trifluoro-phenyl)-quinazolin-2-ylamine] | 1 to 10 | > 20 |
| COCCOc1nc(N)nc2ccc(-c3ccc(F)cc3C)cc12 [Example 67, 6-(4-Fluoro-2-methyl-phenyl)-4-(2-methoxy-ethoxy)-quinazolin-2-ylamine] | 1 to 10 | 10 to 20 |
| COCCOc1nc(N)nc2ccc(-c3ccc(O)cc3)cc12 [Example 68, 4-[2-Amino-4-(2-methoxy-ethoxy)-quinazolin-6-yl]-phenol] | 0.3 to 1 | 10 to 20 |
| COCCOc1nc(N)nc2ccc(-c3ccc(Cl)c(C(F)(F)F)c3)cc12 [Example 69, 6-(4-Chloro-3-trifluoromethyl-phenyl)-4-(2-methoxy-ethoxy)-quinazolin-2-ylamine] | 1 to 10 | > 20 |
| Nc1nc(OCc2ccccc2)c2cc(-c3ccn[nH]3)ccc2n1 [Example 70, 4-Benzyloxy-6-(2H-pyrazol-3-yl)-quinazolin-2-ylamine] | 1 to 10 | 10 to 20 |
| CNC(=O)c1ccc(-c2ccc3nc(N)nc(OCc4ccccc4)c3c2)cc1 [Example 71, 4-(2-Amino-4-benzyloxy-quinazolin-6-yl)-N-methyl-benzamide] | 0.3 to 1 | > 20 |
| Nc1nc(OCc2ccccc2)c2cc(-c3cn[nH]c3)ccc2n1 [Example 72, 4-benzyloxy-6-(1H-pyrazol-4-yl)-quinazolin-2-ylamine] | 1 to 10 | > 20 |
| CN(C)CCOCCOc1nc(N)nc2ccc(-c3ccc(OC(F)(F)F)cc3)cc12 [Example 73, 4-[2-(2-Dimethylamino-ethoxy)-ethoxy]-6-(4-trifluoromethoxy-phenyl)-quinazolin-2-ylamine] | 1 to 10 | 10 to 20 |
| CC(C)Oc1nc(N)nc2ccc(-c3ccc(F)cc3F)cc12 [Example 74, 6-(2,4-Difluoro-phenyl)-4-isopropoxy-quinazolin-2-ylamine] | 1 to 10 | 10 to 20 |
| CC(C)Oc1nc(N)nc2ccc(-c3cccc(F)c3F)cc12 [Example 75] | 0.3 to 1 | > 20 |
| CC(C)Oc1nc(N)nc2ccc(-c3cccc(C(F)(F)F)c3)cc12 [Example 76, 4-Isopropoxy-6-(3-trifluoromethyl-phenyl)-quinazolin-2-ylamine] | 1 to 10 | > 20 |
| CC(C)Oc1nc(N)nc2ccc(-c3ccccc3C(F)(F)F)cc12 [Example 77, 4-Isopropoxy-6-(2-trifluoromethyl-phenyl)-quinazolin-2-ylamine] | 1 to 10 | 10 to 20 |
| CC(C)Oc1nc(N)nc2ccc(-c3ccc(Cl)cc3)cc12 [Example 78, 4-Isopropoxy-6-(4-chloro-phenyl)-quinazolin-2-ylamine] | 1 to 10 | > 20 |
| Cc1ccc(-c2ccc3nc(N)nc(OC(C)C)c3c2)cc1 [Example 79, 4-Isopropoxy-6-p-tolyl-quinazolin-2-ylamine] | 1 to 10 | > 20 |

| Structure (SMILES) | EC50 [1] [µM] | CC50 at 3 days [2] [µM] |
| --- | --- | --- |
| CC(C)Oc1nc(N)nc2ccc(-c3ccc(Cl)cc3Cl)cc12 [Example 80, 6-(2,4-Dichloro-phenyl)-4-isopropoxy-quinazolin-2-ylamine] | 1 to 10 | > 20 |
| CC(C)Oc1nc(N)nc2ccc(-c3ccc(F)cc3Cl)cc12 [Example 81, 6-(2-Chloro-4-fluoro-phenyl)-4-isopropoxy-quinazolin-2-ylamine] | 1 to 10 | 10 to 20 |
| CC(C)Oc1nc(N)nc2ccc(-c3cccc(Cl)c3)cc12 [Example 82, 6-(3-Chloro-phenyl)-4-isopropoxy-quinazolin-2-ylamine] | 1 to 10 | > 20 |
| CC(C)Oc1nc(N)nc2ccc(-c3cc4ccccc4s3)cc12 [Example 83, 6-Benzo[b]thiophen-2-yl-4-isopropoxy-quinazolin-2-ylamine] | 1 to 10 | 10 to 20 |
| CC(C)Oc1nc(N)nc2ccc(-c3ccoc3)cc12 [Example 84, 6-Furan-3-yl-4-isopropoxy-quinazolin-2-ylamine] | 0.3 to 1 | 10 to 20 |
| CC(C)Oc1nc(N)nc2ccc(-c3ccn[nH]3)cc12 [Example 85, 4-Isopropoxy-6-(2H-pyrazol-3-yl)-quinazolin-2-ylamine] | 0.3 to 1 | > 20 |
| CC(C)Oc1nc(N)nc2ccc(-c3cc4ccccc4o3)cc12 [Example 86, 6-Benzofuran-2-yl-4-isopropoxy-quinazolin-2-ylamine] | 0.3 to 1 | > 20 |
| CNC(=O)c1ccc(-c2ccc3nc(N)nc(OC(C)C)c3c2)cc1 [Example 87, 4-(2-Amino-4-isopropoxy-quinazolin-6-yl)-N-methyl-benzamide] | 0.3 to 1 | 10 to 20 |
| CC(C)Oc1nc(N)nc2ccc(-c3ccco3)cc12 [Example 88, 6-Furan-2-yl-4-isopropoxy-quinazolin-2-ylamine] | 1 to 10 | > 20 |
| CC(C)Oc1nc(N)nc2ccc(-c3ccsc3)cc12 [Example 89, 4-Isopropoxy-6-thiophen-3-yl-quinazolin-2-ylamine] | 0.3 to 1 | 10 to 20 |
| CC(C)Oc1nc(N)nc2ccc(-c3cccnc3)cc12 [Example 90, 4-Isopropoxy-6-pyridin-3-yl-quinazolin-2-ylamine] | 0.3 to 1 | > 20 |
| CC(C)Oc1nc(N)nc2ccc(-c3ccc(F)c(F)c3)cc12 [Example 91, 6-(3,4-Difluoro-phenyl)-4-isopropoxy-quinazolin-2-ylamine] | 0.3 to 1 | 10 to 20 |
| CC(C)Oc1nc(N)nc2ccc(-c3ccncc3)cc12 [Example 92, 4-Isopropoxy-6-pyridin-4-yl-quinazolin-2-ylamine] | 0.3 to 1 | 10 to 20 |
| CC(C)Oc1nc(N)nc2ccc(-c3cccc(C#N)c3)cc12 [Example 93, 3-(2-Amino-4-isopropoxy-quinazolin-6-yl)-benzonitrile] | 0.3 to 1 | 10 to 20 |
| CC(C)Oc1nc(N)nc2ccc(-c3cc(F)cc(F)c3)cc12 [Example 94, 6-(3,5-Difluoro-phenyl)-4-isopropoxy-quinazolin-2-ylamine] | 1 to 10 | > 20 |
| CC(C)Oc1nc(N)nc2ccc(-c3ccc(OC(F)(F)F)cc3)cc12 [Example 95, 4-Isopropoxy-6-(4-trifluoromethoxy-phenyl)-quinazolin-2-ylamine] | 1 to 10 | > 20 |
| CC(C)Oc1nc(N)nc2ccc(-c3ccc(N)cc3)cc12 [Example 96, 6-(4-Amino-phenyl)-4-isopropoxy-quinazolin-2-ylamine] | 0.3 to 1 | > 20 |
| CC(C)Oc1nc(N)nc2ccc(-c3ccc(F)c(F)c3F)cc12 [Example 97, 4-Isopropoxy-6-(2,3,4-trifluoro-phenyl)-quinazolin-2-ylamine] | 0.3 to 1 | > 20 |
